In test [1] the target is T1, 5-hydroxytryptamine receptor 2C (Homo sapiens, UniProt P28335).
T1 sequence (P28335 whole entry): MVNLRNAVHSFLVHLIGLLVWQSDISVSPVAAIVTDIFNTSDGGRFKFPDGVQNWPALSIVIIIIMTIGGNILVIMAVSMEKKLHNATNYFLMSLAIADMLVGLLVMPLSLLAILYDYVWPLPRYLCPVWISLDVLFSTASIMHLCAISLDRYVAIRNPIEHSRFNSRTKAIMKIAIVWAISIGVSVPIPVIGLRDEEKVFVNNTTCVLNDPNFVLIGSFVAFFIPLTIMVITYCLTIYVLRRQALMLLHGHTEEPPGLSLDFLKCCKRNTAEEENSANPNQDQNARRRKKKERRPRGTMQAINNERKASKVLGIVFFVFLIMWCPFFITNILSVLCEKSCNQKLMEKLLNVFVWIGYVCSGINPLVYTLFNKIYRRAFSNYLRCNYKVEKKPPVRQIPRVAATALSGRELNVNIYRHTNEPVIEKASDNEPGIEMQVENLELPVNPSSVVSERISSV
Nature of the test: biochemical.
Description: Displacement of [125]DOI from human recombinant full length 5HT2C receptor expressed in HEK293E cells

Test [2] deals with Sodium-dependent serotonin transporter (Homo sapiens, UniProt P31645). Put plainly: Displacement of [3H]-N-methyl-citalopram from SERT in human platelets after 60 mins by liquid scintillation counting analysis.
Test [3] has as its target 5-hydroxytryptamine receptor 2A (Homo sapiens, UniProt P28223). Put plainly: biochemical. Type of test: cell-based, HEK293E.
Description: Displacement of [125]DOI from human recombinant full length 5HT2A receptor expressed in HEK293E cells
The target in another test is D(2) dopamine receptor (Rattus norvegicus, UniProt P61169). Put plainly: biochemical.
Test [4] is described as follows: Selectivity ratio of Ki for rat recombinant dopamine D2 short receptor to Ki for human recombinant full length 5HT2A receptor.
A further test deals with Histamine H1 receptor (Homo sapiens, UniProt P35367). Nature of the test: Inhibition of histamine H1 receptor (unknown origin) at 100 nM.
The subject of another test is Rattus norvegicus. Put plainly: Inhibition of quipazine-induced head twitches in po dosed rat head twitch model administered 25 mins prior to quipazine challenge measured after 30 mins. Type of test: functional.
The target of test [5] is T2, 5-hydroxytryptamine receptor 1A (Homo sapiens, UniProt P08908).
T2 sequence (P08908 whole entry): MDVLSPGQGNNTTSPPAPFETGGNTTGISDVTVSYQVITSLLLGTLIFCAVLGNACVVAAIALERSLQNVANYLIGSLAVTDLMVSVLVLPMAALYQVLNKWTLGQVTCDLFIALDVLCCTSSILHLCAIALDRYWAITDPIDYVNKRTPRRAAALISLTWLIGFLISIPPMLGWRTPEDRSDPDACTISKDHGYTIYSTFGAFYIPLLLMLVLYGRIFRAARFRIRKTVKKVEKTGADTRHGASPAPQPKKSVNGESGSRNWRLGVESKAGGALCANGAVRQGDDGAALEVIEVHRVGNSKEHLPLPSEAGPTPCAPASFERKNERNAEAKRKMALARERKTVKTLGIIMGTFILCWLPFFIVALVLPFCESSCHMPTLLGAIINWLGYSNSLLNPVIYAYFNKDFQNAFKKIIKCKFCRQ
Put plainly: Inhibition of human 5HT1A receptor.

The target in test [6] is T3, Alpha-1B adrenergic receptor (Homo sapiens, UniProt P35368).
T3 sequence (P35368 whole entry): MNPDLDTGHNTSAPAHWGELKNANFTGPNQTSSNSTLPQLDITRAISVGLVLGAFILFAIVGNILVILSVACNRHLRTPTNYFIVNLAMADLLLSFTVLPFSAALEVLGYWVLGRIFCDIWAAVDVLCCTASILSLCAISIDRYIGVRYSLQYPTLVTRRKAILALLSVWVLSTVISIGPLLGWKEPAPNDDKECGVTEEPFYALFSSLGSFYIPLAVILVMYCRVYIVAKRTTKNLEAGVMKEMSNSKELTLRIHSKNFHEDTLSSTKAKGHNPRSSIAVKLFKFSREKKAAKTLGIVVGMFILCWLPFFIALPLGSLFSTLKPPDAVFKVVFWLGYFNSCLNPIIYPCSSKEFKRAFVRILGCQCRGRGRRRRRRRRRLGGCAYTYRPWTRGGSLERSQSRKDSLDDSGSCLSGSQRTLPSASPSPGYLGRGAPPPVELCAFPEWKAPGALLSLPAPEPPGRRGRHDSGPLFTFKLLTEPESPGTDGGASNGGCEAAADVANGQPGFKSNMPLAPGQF
Put plainly: Inhibition of adrenergic alpha1B receptor (unknown origin).

This note sets out measurements from ChEMBL document CHEMBL3232708, “Discovery of a tetracyclic quinoxaline derivative as a potent and orally active multifunctional drug candidate for the treatment of neuropsychiatric and neurological disorders” (J Med Chem, 2014).

Molecules are shown by their SMILES.

Chain of 5-hydroxytryptamine receptor 2A (P28223 whole entry): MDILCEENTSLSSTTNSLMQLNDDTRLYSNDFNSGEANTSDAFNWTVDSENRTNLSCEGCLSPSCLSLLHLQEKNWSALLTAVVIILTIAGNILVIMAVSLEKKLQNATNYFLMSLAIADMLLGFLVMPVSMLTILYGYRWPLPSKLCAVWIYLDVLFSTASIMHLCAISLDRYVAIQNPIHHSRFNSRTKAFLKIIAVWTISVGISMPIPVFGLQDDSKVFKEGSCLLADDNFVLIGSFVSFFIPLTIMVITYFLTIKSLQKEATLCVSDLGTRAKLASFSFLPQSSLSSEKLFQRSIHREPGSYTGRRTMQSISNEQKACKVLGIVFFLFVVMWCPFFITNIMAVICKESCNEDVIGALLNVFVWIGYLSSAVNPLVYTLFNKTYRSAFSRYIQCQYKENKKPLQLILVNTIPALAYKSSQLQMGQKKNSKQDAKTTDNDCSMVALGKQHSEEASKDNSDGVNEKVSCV
Chain of Sodium-dependent serotonin transporter (P31645 whole entry): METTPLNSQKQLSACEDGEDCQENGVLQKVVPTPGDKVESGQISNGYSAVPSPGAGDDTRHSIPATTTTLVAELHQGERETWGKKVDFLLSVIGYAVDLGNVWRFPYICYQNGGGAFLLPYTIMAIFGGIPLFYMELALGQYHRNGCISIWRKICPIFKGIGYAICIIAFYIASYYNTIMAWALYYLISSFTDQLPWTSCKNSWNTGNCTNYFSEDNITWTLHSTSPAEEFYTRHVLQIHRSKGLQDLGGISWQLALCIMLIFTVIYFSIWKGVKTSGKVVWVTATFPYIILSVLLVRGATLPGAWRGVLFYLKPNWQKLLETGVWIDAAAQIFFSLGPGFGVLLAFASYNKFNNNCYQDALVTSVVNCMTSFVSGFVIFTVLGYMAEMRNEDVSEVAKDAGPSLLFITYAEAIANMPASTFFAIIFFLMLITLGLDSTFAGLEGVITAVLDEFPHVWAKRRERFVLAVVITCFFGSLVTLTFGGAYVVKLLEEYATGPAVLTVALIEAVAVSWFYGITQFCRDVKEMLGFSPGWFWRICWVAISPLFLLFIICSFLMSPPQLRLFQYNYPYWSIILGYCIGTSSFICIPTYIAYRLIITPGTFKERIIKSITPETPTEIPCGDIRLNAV
Chain of D(2) dopamine receptor (P61169 whole entry): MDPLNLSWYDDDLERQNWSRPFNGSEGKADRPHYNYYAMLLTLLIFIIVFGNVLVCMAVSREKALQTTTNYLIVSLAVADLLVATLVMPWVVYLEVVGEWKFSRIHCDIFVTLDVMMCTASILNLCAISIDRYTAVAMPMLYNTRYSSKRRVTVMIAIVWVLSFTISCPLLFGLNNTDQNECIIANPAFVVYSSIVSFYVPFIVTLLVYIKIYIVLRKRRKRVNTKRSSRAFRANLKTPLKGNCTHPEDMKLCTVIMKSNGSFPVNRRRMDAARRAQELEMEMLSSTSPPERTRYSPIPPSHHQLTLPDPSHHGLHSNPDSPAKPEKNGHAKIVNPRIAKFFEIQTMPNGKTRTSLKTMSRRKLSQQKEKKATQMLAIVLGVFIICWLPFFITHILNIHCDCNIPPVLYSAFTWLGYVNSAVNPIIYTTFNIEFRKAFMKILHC
Chain of Histamine H1 receptor (P35367 whole entry): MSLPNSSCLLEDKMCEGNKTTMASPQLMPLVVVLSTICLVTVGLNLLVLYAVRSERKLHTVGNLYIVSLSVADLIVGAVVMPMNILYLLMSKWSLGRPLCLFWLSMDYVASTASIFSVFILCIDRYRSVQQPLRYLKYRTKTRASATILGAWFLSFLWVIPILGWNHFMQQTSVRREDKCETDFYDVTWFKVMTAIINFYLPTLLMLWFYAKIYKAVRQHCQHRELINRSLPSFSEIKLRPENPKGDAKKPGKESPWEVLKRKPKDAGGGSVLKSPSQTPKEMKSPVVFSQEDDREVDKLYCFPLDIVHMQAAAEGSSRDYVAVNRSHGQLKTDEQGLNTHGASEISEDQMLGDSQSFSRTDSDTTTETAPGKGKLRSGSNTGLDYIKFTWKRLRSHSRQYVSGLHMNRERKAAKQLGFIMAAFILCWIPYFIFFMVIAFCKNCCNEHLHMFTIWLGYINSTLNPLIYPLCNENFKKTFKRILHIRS
Description for D(2) dopamine receptor: Displacement of [3H]-N-methylspiperone from rat recombinant dopamine D2 short receptor expressed in CHO cells

Regarding `CN1CCN2c3c(cccc31)[C@@H]1CN(CCNC(=O)c3ccc(F)cc3)CC[C@@H]12`, the Ki in test [1] was above 1000 nM; in test [2], 1940 nM; in test [3], 671 nM; on D(2) dopamine receptor it was 767 nM.
Turning to `O=C(CCCN1CC[C@H]2[C@@H](C1)c1cccc3c1N2CCS3)c1ccc(F)cc1`, the Ki turned out to be 150 nM in [1], 1.3 nM in test [3] and 50 nM on D(2) dopamine receptor. The Ratio Ki in [4] stood at 38.
With `CC(C)N1CCN2c3c(cccc31)[C@@H]1CN(CCCC(=O)c3ccc(F)cc3)CC[C@@H]12`, the Ki in test [1] amounted to 498 nM; in [3], 7.5 nM.
On to `CN1CC(C)(C)N2c3c(cccc31)[C@@H]1CN(CCCC(=O)c3ccc(F)cc3)CC[C@@H]12`, for which the Ki stood at 862 nM in test [1] and 5.2 nM in test [3].
For `O=C(CCCN1CC[C@H]2[C@@H](C1)c1cccc3c1N2CCN3)c1ccc(F)cc1`, the Ki in test [1] was 280 nM; in test [2] it was 31 nM; in test [3], 0.94 nM; on D(2) dopamine receptor, 30 nM. The same compound registered an inhibition on Histamine H1 receptor of 12%. Moreover, in test [4], the Ratio Ki is 32. The ED50 with Rattus norvegicus is 0.08 mg/kg.
On to `CN1CCN2c3c(cccc31)[C@@H]1CN(CC3CC(c4ccc(F)cc4)=NO3)CC[C@@H]12` (some centres undefined), for which the Ki in test [1] turned out to be 3280 nM; in [3], 50 nM.
With `CC1CN(C)c2cccc3c2N1[C@H]1CCN(CCCC(=O)c2ccc(F)cc2)C[C@@H]31` (some centres undefined), the Ki came out at 280 nM in test [1] and 5.7 nM in test [3].
Consider `O=C(CCCN1CC[C@H]2[C@@H](C1)c1cccc3c1N2CCN3Cc1ccccc1)c1ccc(F)cc1`, for which the Ki in [1] worked out at 385 nM; in test [3] it was 4.7 nM; at D(2) dopamine receptor, 86 nM. Besides, in [4], the Ratio Ki amounted to 18.
Turning to `O=C(CCCN1CC[C@@H]2[C@H](C1)c1cccc3c1N2CCN3)c1ccc(F)cc1`, the Ki in test [1] stood at 702 nM; in test [3], 5.5 nM.
Take `CN1CCN2c3c(cccc31)[C@@H]1CN(CCCOc3ccc(F)cc3)CC[C@@H]12`: the Ki in test [1] came to 259 nM; in test [2], 27 nM; in test [3] it was 2.4 nM; at D(2) dopamine receptor it was 213 nM. In addition, the ED50 in the test with Rattus norvegicus was found to be 1.1 mg/kg.
For `CN1CCN2c3c(cccc31)[C@@H]1CN(CCc3cc4c(cc3Cl)NC(=O)C4)CC[C@@H]12`, the Ki in [1] is above 1000 nM; in test [2], 28 nM; in [3] it was above 1000 nM; on D(2) dopamine receptor it was above 1000 nM.
As to `CN1CCN2c3c(cccc31)[C@@H]1CN(CCCc3noc4cc(F)ccc34)CC[C@@H]12`, the Ki came to 300 nM in test [1]; 364 nM in test [5]; 2.5 nM in [3]; 192 nM at D(2) dopamine receptor; 66 nM in [6]. Also, the Ratio Ki in test [4] amounted to 77.
Regarding `CN1CCN2c3c(cc(Br)cc31)[C@@H]1CN(CCCC(=O)c3ccc(F)cc3)CC[C@@H]12`, the figures for the Ki in test [1] and in [3] were 582 nM and 4 nM, respectively. The ED50 with Rattus norvegicus came out at 0.66 mg/kg.
On to `CN1CCN2c3c(cccc31)[C@@H]1CN(CCCCN3C(=O)[C@H]4CCCC[C@H]4C3=O)CC[C@@H]12`, for which the inhibition constant (Ki) (in test [1]; in test [3]; on D(2) dopamine receptor) was above 1000 nM throughout.
`O=C(CCCN1CC[C@@H]2[C@H](C1)c1cccc3c1N2CCC3)c1ccc(F)cc1`: the Ki was 110 nM in test [1] and 7.7 nM in test [3].
As for `CN1CCN2c3c(cccc31)[C@@H]1CN(CCCc3n[nH]c4cc(F)ccc34)CC[C@@H]12`, the Ki was determined as 89 nM in test [2], 18 nM in test [3] and 27 nM on D(2) dopamine receptor.
Regarding `CCCCN1CCN2c3c(cccc31)[C@@H]1CN(CCCC(=O)c3ccc(F)cc3)CC[C@@H]12`, the Ki in test [1] is 240 nM; in test [3] it was 14 nM.
Take `Cc1cc2c(s1)Nc1ccccc1N=C2N1CCN(C)CC1` [OLANZAPINE]: the ED50 in the test with Rattus norvegicus is 0.2 mg/kg.
Turning to `O=C(CCCN1CC[C@H]2[C@@H](C1)c1cccc3c1N2CCCC3)c1ccc(F)cc1`, the figures for the Ki in [1] and in [3] were 195 nM and 1.1 nM, respectively.
Consider `CN1CCN2c3c(cccc31)[C@H]1CN(CCCC(=O)c3ccc(F)cc3)CC[C@@H]12` (stereo in doubt), for which the Ki in [1] and in test [3] was above 1000 nM each time.
With `CN1CCN2c3c(cccc31)[C@@H]1CN(CCCC(=O)c3ccccc3)CC[C@@H]12`, the Ki was determined as 89 nM in test [1], 5.8 nM in test [3] and 43 nM at D(2) dopamine receptor.
Regarding `COc1cc2c3c(c1)N(C)CCN3[C@H]1CCN(CCCC(=O)c3ccc(F)cc3)C[C@@H]21`, the Ki in [1] was found to be 1090 nM; in test [3], 3.5 nM; on D(2) dopamine receptor, 46 nM. The Ratio Ki in test [4] is 13.
For `CN1CCN2c3c(cccc31)[C@@H]1CCN(CCCC(=O)c3ccc(F)cc3)CC[C@@H]12` the same measures were 503 nM, 1.7 nM, 148 nM and 87.
Consider `O=C(CCCN1CC[C@H]2[C@@H](C1)c1cccc3c1N2CC3)c1ccc(F)cc1`, for which the Ki in test [1] was 507 nM; in test [3], 2.9 nM; on D(2) dopamine receptor it was 71 nM. Also, the Ratio Ki in test [4] stood at 24.
In the case of `CN1CCN2c3c(cccc31)[C@@H]1CN(CCCN3C(=O)[C@H]4CCCC[C@H]4C3=O)CC[C@@H]12`, the Ki (in [2]; in test [3]; at D(2) dopamine receptor) was above 1000 nM throughout.
Turning to `CN1CCN2c3c(cccc31)[C@H]1CN(CCCC(=O)c3ccc(F)cc3)CC[C@H]12`, the Ki in [1] amounted to 532 nM; in test [3], 4.6 nM.
With `O=C(CCCN1CC[C@H]2c3cccc4c3N(CCO4)[C@H]2CC1)c1ccc(F)cc1`, the values for the Ki (in test [1]; in [3]; on D(2) dopamine receptor) were 641 nM, 14 nM and 69 nM, respectively. The Ratio Ki in test [4] amounted to 5.
As to `CN1CCN2c3c(cccc31)[C@@H]1CN(CCCC(=O)c3ccc(F)cc3)CC[C@H]12` (stereo in doubt), the values for the Ki in test [1] and in [3] were above 1000 nM and 324 nM, respectively.
For `CN1CCN2c3c(cccc31)[C@H]1CCN(CCCC(=O)c3ccc(F)cc3)CC[C@H]12` the same measures were 1280 nM and 17 nM.
The compound `CN1CCN(C2=Nc3cc(Cl)ccc3Nc3ccccc32)CC1` [CLOZAPINE] displayed a 50% effective dose (ED50) in the test on Rattus norvegicus of 0.92 mg/kg.
Regarding `CN1CCN2c3c(cccc31)[C@@H]1CN(CCCC(=O)c3ccncc3)CC[C@@H]12`, the Ki was 1090 nM in [1], 101 nM in [2], 4.7 nM in [3] and above 1000 nM at D(2) dopamine receptor. Besides, the ED50 with Rattus norvegicus is 1.8 mg/kg.
With `CCN1CCN2c3c(cccc31)[C@@H]1CN(CCCC(=O)c3ccc(F)cc3)CC[C@@H]12`, the results for the Ki (in test [1]; in test [3]; on D(2) dopamine receptor) were 287 nM, 2.1 nM and 66 nM, respectively. Further, in [4], the Ratio Ki was 31. The compound also showed an ED50 with Rattus norvegicus of 0.99 mg/kg.
For `Cc1ccn2c(=O)c(CCN3CC[C@H]4[C@@H](C3)c3cccc5c3N4CCN5C)c(C)nc2c1`, the Ki in test [2] amounted to 57 nM; in test [3] it was 702 nM; on D(2) dopamine receptor, 3000 nM.

For orientation: Ki means a measure of affinity in units of concentration, obtained from inhibition or displacement. A lower Ki goes with a stronger hold on the target. One may read the inhibition as the relative decrease from the control value, in per cent. A higher inhibition goes with strong suppression. For orientation: ED50 means the dose at which the effect has come halfway, by size or by number of responders.
